# Data reported in ChEMBL document CHEMBL5715937, “In vitro activity of Bcr-Abl inhibitors AMN107 and BMS-354825 against clinically relevant imatinib-resistant Abl kinase domain mutants” (Cancer Res, 2005).
# Active and inactive are the calls of the source. The calls are words filed in the database; no cut-off is given here.
# What was measured:
# [1] = Inhibition of BCR-ABL M244V mutant (unknown origin) expressed in mouse BaF3 cells assessed as inhibition of cell growth incubated for 72 hrs by […] CellTiter96 viability analysis; conditions: BaF3, time 72 hrs, condition chronic myelogenous leukemia
# [2] = Inhibition of BCR-ABL Q252H mutant (unknown origin) expressed in mouse BaF3 cells assessed as inhibition of cell growth incubated for 72 hrs by […] CellTiter96 viability analysis
# [3] = Inhibition of BCR-ABL E255V mutant (unknown origin) expressed in mouse BaF3 cells assessed as inhibition of cell growth incubated for 72 hrs by […] CellTiter96 viability analysis
# [4] = Inhibition of BCR-ABL F317L mutant (unknown origin) expressed in mouse BaF3 cells assessed as inhibition of cell growth incubated for 72 hrs by […] CellTiter96 viability analysis
# [5] = Inhibition of BCR-ABL F359V mutant (unknown origin) expressed in mouse BaF3 cells assessed as inhibition of cell growth incubated for 72 hrs by […] CellTiter96 viability analysis
# [6] = Inhibition of BCR-ABL L387M mutant (unknown origin) expressed in mouse BaF3 cells assessed as inhibition of cell growth incubated for 72 hrs by […] CellTiter96 viability analysis; conditions: BaF3, time 72 hrs, condition chronic myelogenous leukemia
# [7] = Inhibition of BCR-ABL H396P mutant (unknown origin) expressed in mouse BaF3 cells assessed as inhibition of cell growth incubated for 72 hrs by […] CellTiter96 viability analysis
# [8] = Inhibition of BCR-ABL H396R mutant (unknown origin) expressed in mouse BaF3 cells assessed as inhibition of cell growth incubated for 72 hrs by […] CellTiter96 viability analysis
# [9] = Cytotoxicity against mouse BaF3 cells assessed as reduction in cell proliferation incubated for 72 hrs by […] CellTiter96 viability analysis; format: toxicity
# [10] = Inhibition of BCR-ABL V379l mutant (unknown origin) expressed in mouse BaF3 cells assessed as inhibition of tyrosine phosphorylation incubated for 3 hrs by immunoblotting analysis; format: cell-based; conditions: BaF3, 3 h
# [11] = Inhibition of BCR-ABL L387M mutant (unknown origin) expressed in mouse BaF3 cells assessed as inhibition of tyrosine phosphorylation incubated for 3 hrs by immunoblotting analysis; format: cell-based; conditions: BaF3, 3 h
# [12] = test system: BaF3; assay: Induction of apoptosis in mouse BaF3 cells expressing wild-type Bcr-Abl at 30 to 300 nM incubated for 72 hrs by Annexin V-phycoerythrin and 7-amino-actinomycin D staining based PCA instrument analysis; format: functional, cell-based; conditions: dose 30-300 nM
# [13] = test system: BaF3; assay: Induction of apoptosis in mouse BaF3 cells expressing Bcr-Abl M244V mutant at 30 to 300 nM incubated for 72 hrs by Annexin V-phycoerythrin and 7-amino-actinomycin D staining based PCA instrument analysis; format: functional, cell-based; conditions: dose 30-300 nM
# [14] = test system: BaF3; assay: Induction of apoptosis in mouse BaF3 cells expressing Bcr-Abl Y253F mutant at 30 to 300 nM incubated for 72 hrs by Annexin V-phycoerythrin and 7-amino-actinomycin D staining based PCA instrument analysis; format: functional, cell-based; conditions: dose 30-300 nM
# [15] = test system: BaF3; assay: Induction of apoptosis in mouse BaF3 cells expressing Bcr-Abl Y253H mutant at 30 to 300 nM incubated for 72 hrs by Annexin V-phycoerythrin and 7-amino-actinomycin D staining based PCA instrument analysis; format: functional, cell-based; conditions: dose 30-300 nM
# [16] = test system: BaF3; assay: Induction of apoptosis in mouse BaF3 cells expressing Bcr-Abl E255V mutant at 30 to 300 nM incubated for 72 hrs by Annexin V-phycoerythrin and 7-amino-actinomycin D staining based PCA instrument analysis; format: functional, cell-based; conditions: dose 30-300 nM
# [17] = test system: BaF3; assay: Induction of apoptosis in mouse BaF3 cells expressing Bcr-Abl F317L mutant at 30 to 300 nM incubated for 72 hrs by Annexin V-phycoerythrin and 7-amino-actinomycin D staining based PCA instrument analysis; format: functional, cell-based; conditions: dose 30-300 nM
# [18] = test system: BaF3; assay: Induction of apoptosis in mouse BaF3 cells expressing Bcr-Abl L387M mutant at 30 to 300 nM incubated for 72 hrs by Annexin V-phycoerythrin and 7-amino-actinomycin D staining based PCA instrument analysis; format: functional, cell-based; conditions: dose 30-300 nM
# [19] = test system: BaF3; assay: Induction of apoptosis in mouse BaF3 cells expressing Bcr-Abl M244V mutant assessed as increase in apoptotic cells at 1500 nM incubated for 72 hrs by Annexin V-phycoerythrin and 7-amino-actinomycin D staining based PCA instrument analysis relative to control; format: functional
# [20] = test system: BaF3; assay: Induction of apoptosis in mouse BaF3 cells expressing Bcr-Abl Q252H mutant assessed as increase in apoptotic cells at 1500 nM incubated for 72 hrs by Annexin V-phycoerythrin and 7-amino-actinomycin D staining based PCA instrument analysis relative to control; format: functional
# [21] = test system: BaF3; assay: Induction of apoptosis in mouse BaF3 cells expressing Bcr-Abl Y253H mutant assessed as increase in apoptotic cells at 1500 nM incubated for 72 hrs by Annexin V-phycoerythrin and 7-amino-actinomycin D staining based PCA instrument analysis relative to control; format: functional
# [22] = test system: BaF3; assay: Induction of apoptosis in mouse BaF3 cells expressing Bcr-Abl F311L mutant assessed as increase in apoptotic cells at 1500 nM incubated for 72 hrs by Annexin V-phycoerythrin and 7-amino-actinomycin D staining based PCA instrument analysis relative to control; format: functional
# [23] = test system: BaF3; assay: Induction of apoptosis in mouse BaF3 cells expressing Bcr-Abl V379l mutant assessed as increase in apoptotic cells at 1500 nM incubated for 72 hrs by Annexin V-phycoerythrin and 7-amino-actinomycin D staining based PCA instrument analysis relative to control; format: functional
# [24] = test system: BaF3; assay: Induction of apoptosis in mouse BaF3 cells expressing Bcr-Abl L387M mutant assessed as increase in apoptotic cells at 1500 nM incubated for 72 hrs by Annexin V-phycoerythrin and 7-amino-actinomycin D staining based PCA instrument analysis relative to control; format: functional
# [25] = test system: BaF3; assay: Induction of apoptosis in mouse BaF3 cells at 30 to 1500 nM incubated for 72 hrs by Annexin V-phycoerythrin and 7-amino-actinomycin D staining based PCA instrument analysis relative to control; format: toxicity, cell-based; conditions: baf3, 72 h, 1.5 µM, dose 30-1500 nM
# [26] = test system: BaF3; assay: Induction of apoptosis in mouse BaF3 cells expressing Bcr-Abl T315I mutant at 30 to 1500 nM incubated for 72 hrs by Annexin V-phycoerythrin and 7-amino-actinomycin D staining based PCA instrument analysis relative to control; format: functional, cell-based; conditions: dose 30-1500 nM
# [27] = cells; conditions: Mus musculus, BaF3, 72 h
# [28] = cells; conditions: Mus musculus, BaF3, 3 h
# [29] = cells; conditions: Mus musculus, BaF3, 3 h; remark: listed apart in the source
# [30] = cells; conditions: Mus musculus, BaF3, 3 h; remark: listed apart in the source
# [31] = cells; conditions: Mus musculus, BaF3, 3 h; remark: listed apart in the source
# [32] = cells; conditions: Mus musculus, BaF3, 3 h; remark: listed apart in the source
# [33] = BaF3, time 72 hrs, condition chronic myelogenous leukemia
structure (smiles),measurement,setting,value
Cc1cn(-c2cc(NC(=O)c3ccc(C)c(Nc4nccc(-c5cccnc5)n4)c3)cc(C(F)(F)F)c2)cn1 [NILOTINIB],IC90,[1],56 nM
same,IC50,"[2]; BaF3, 72 h",70 nM
same,IC90,[2]; [33],156 nM
same,IC50,"[3]; BaF3, 72 h",430 nM
same,IC90,[3]; [33],2000 nM
same,IC50,"[4]; BaF3, 72 h",50 nM
same,IC90,[4]; [33],116 nM
same,IC50,"[5]; BaF3, 72 h",175 nM
same,IC90,[5]; [33],385 nM
same,IC90,[6],115 nM
same,IC50,"[7]; BaF3, 72 h",41 nM
same,IC90,[7]; [33],69 nM
same,IC50,"[8]; BaF3, 72 h",41 nM
same,IC90,[8]; [33],73 nM
same,IC50 at 72 h,[9],> 2000 nM
same,IC50,[10],15 nM
same,IC50,[11],33 nM
same,Activity,[12],Active
same,Activity,[13],Active
same,Activity,[14],Active
same,Activity,[15],Active
same,Activity,[16],Active
same,Activity,[17],Active
same,Activity,[18],Active
same,Activity,[19],>90%
same,Activity,[20],>90%
same,Activity,[21],65%
same,Activity,[22],>90%
same,Activity,[23],>90%
same,Activity,[24],>90%
same,Activity,[25],Non-Toxic
same,Activity,[26],inactive
same,IC50,[27],> 2000 nM
same,IC50,[28],> 5 µM
same,IC50,[29],15 nM
same,IC50,[30],8 nM
same,IC50,[31],43 nM
same,IC50,[32],22 nM
